Data on 61 molecules can be found in US12686689B2, “HPK1 inhibitor, preparation method therefor and use thereof” (WIGEN BIOMEDICINE TECHNOLOGY (SHANGHAI) CO., LTD., priority 2020, dated 2026).

HPK1, sequence (Q92918 whole entry): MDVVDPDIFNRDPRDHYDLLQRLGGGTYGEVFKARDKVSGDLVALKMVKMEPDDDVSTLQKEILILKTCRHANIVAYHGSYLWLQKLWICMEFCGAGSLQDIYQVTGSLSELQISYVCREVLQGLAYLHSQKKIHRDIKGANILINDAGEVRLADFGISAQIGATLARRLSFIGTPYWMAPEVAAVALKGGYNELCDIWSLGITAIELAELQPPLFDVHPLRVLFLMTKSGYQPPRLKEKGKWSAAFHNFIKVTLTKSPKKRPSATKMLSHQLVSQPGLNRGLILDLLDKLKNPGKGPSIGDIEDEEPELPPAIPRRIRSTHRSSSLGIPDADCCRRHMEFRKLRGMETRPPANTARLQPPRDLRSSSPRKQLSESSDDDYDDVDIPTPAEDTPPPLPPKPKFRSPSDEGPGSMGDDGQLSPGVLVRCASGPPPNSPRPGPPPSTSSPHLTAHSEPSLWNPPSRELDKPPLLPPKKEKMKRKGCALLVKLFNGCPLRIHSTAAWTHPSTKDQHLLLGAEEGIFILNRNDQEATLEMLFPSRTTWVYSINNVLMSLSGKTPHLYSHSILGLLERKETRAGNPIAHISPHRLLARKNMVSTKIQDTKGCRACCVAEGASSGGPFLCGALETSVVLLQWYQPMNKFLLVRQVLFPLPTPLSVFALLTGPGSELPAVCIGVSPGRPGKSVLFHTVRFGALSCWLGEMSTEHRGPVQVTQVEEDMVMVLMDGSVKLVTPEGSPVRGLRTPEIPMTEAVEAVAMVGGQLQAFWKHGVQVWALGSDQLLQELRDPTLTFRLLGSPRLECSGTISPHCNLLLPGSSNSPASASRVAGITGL

The assay has as its target HPK1 (Homo sapiens, UniProt Q92918). The assay can be described thus: Inhibitory effect against enzyme activity of HPK1 (lantha Screen, PKC substrate). The assay is classed as biochemical. As to conditions: class symbols defined as IC50 ranges, read-out: Inhibition rate (%). The protocol:
Example 130: Assay of Inhibitory Effect of Compound Against Enzyme Activity of HPK1
The inhibitory effect of the compound against the enzyme activity of HPK1 was determined by using a lantha Screen method with PKC as a substrate. The process comprises the following specific steps: the HPK1 protein was incubated with the serially-diluted compound at 28° C. for 10 min followed by addition of fluoroescein-labeled PKC substrate and ATP to react for 90 min. After termination of the reaction, a Terbium-labeled antibody against phosphorylated PKC was added and incubated for 60 min. The energy transfer of Teribium and fluoroscein was monitored by detecting luminescence at 520 nm and 450 nm to quantify PKC as the level of phosphorylation of […]. Inhibition % and IC50 of the compound were calculated compared to the control group.
For the molecule `CN1CCN2c3ccc(-c4n[nH]c5cc(C#N)c(-c6cccn7cnnc67)cc45)cc3OCC2C1` (stereo not shown) [Compound 56], the IC50 was ≤ 10 nM.

Consider `CN1CCN2c3ccc(-c4n[nH]c5cc(C#N)c(-c6cccnc6)cc45)cc3OCC2C1` (stereo not shown) [Compound 41], for which the IC50 was ≤ 10 nM.

As for `COc1cccc(F)c1-c1cc2c(-c3ccc4c(c3)OCC3CN(C)CCN43)c[nH]c2cn1` (stereo not shown) [Compound 88], the IC50 was ≤ 10 nM.

As to `CN1CCN2c3ccc(-c4n[nH]c5cc(C#N)c(-c6cnn7ccccc67)cc45)cc3OCC2C1` (stereo not shown) [Compound 62], the IC50 was 10 to 100 nM.

Regarding `CN1CCN2c3ccc(-c4cnc5[nH]cc(-c6ccc(C(=O)N7CC8(COC8)C7)cc6)c5c4)cc3OCC2C1` (stereo not shown) [Compound 106], the IC50 was ≤ 10 nM.

As for `CN1CCN2c3ccc(-c4cnc5[nH]cc(-c6ccc(C(=O)N7CC(O)C7)cc6)c5c4)cc3OCC2C1` (stereo not shown) [Compound 104], the IC50 lay in the range of 10 to 100 nM.

Take `CN(C)CCN(C)C(=O)c1ccc(-c2n[nH]c3ncc(-c4ccc5c(c4)OCC4CN(C)CCN54)cc23)cc1` (stereo not shown) [Compound 117]: the IC50 is ≤ 10 nM.

Turning to `CN1CCN2c3ccc(-c4n[nH]c5cnc(-c6cnn7ccccc67)cc45)cc3OCC2C1` (stereo not shown) [Compound 78], the IC50 is ≤ 10 nM.

Take `CN1CCN2c3ccc(-c4n[nH]c5cc(C#N)c(-c6ccc(-c7ccccn7)cc6F)cc45)cc3OCC2C1` (stereo not shown) [Compound 40]: the IC50 is 10 to 100 nM.

Consider `CN1CCN2c3ccc(-c4n[nH]c5cc(C#N)c(-c6ccn7cnnc7c6)cc45)cc3OCC2C1` (stereo not shown) [Compound 61], for which the IC50 is ≤ 10 nM.

With `COc1ccncc1-c1cc2c(-c3ccc4c(c3)OCC3CN(C)CCN43)n[nH]c2cn1` (stereo not shown) [Compound 71], the IC50 is ≤ 10 nM.

As for `CNCc1cc(C)c(-c2cc3c(-c4ccc5c(c4)OCC4CNCCN54)n[nH]c3cc2C#N)c(F)c1` (stereo not shown) [Compound 123], the IC50 was ≤ 10 nM.

For the molecule `CNCc1cc(C)c(-c2ncc3[nH]nc(-c4ccc5c(c4)OCC4CN(C)CCN54)c3n2)c(F)c1` (stereo not shown) [Compound 80], the IC50 lay within 10 to 100 nM.

Consider `CNCc1cc(C)c(-c2cc3c(-c4ccc5c(c4)OCC4CN(C6CC6)CCN54)n[nH]c3cc2C#N)c(F)c1` (stereo not shown) [Compound 125], for which the IC50 is ≤ 10 nM.

As for `CN1CCN2c3ccc(-c4n[nH]c5cc(C#N)c(-c6ccccc6F)cc45)cc3OCC2C1` (stereo not shown) [Compound 1, 5-(2-fluorophenyl)-3-(3-methyl-1,2,3,4,4a,5-hexahydrobenzo[b]pyrazino[1,2-d][1,4]oxazin-8-yl)-1H-indazole-6-carbonitrile], the IC50 is ≤ 10 nM.

For the molecule `CN1CCN2c3ccc(-c4n[nH]c5cc(C#N)c(-c6ccn7ncnc7c6)cc45)cc3OCC2C1` (stereo not shown) [Compound 60], the IC50 was ≤ 10 nM.

Take `CN1CCN2c3ccc(-c4n[nH]c5cc(C#N)c(-c6c(F)cc(NC(=O)CC#N)cc6F)cc45)cc3OCC2C1` (stereo not shown) [Compound 30]: the IC50 is ≤ 10 nM.

On to `CN1CCN2c3ccc(-c4n[nH]c5cc(C#N)c(-c6cccc(F)c6F)cc45)cc3OCC2C1` (stereo not shown) [Compound 7], for which the IC50 is ≥ 100 nM.

Regarding `CN1CCN2c3ccc(-c4n[nH]c5cc(C#N)c(-c6cccn7ncnc67)cc45)cc3OCC2C1` (stereo not shown) [Compound 57], the IC50 is ≤ 10 nM.

In the case of `CCNCc1cc(F)c(-c2cc3c(-c4ccc5c(c4)OCC4CN(C)CCN54)n[nH]c3cc2C#N)c(F)c1` (stereo not shown) [Compound 21], the IC50 was ≤ 10 nM.

Turning to `Cc1ccc(F)c(F)c1-c1cc2c(-c3ccc4c(c3)OCC3CN(C)CCN43)n[nH]c2cc1C#N` (stereo not shown) [Compound 15], the IC50 is ≤ 10 nM.

With `Cc1cncc(-c2cc3c(-c4ccc5c(c4)OCC4CN(C)CCN54)n[nH]c3cc2C#N)c1` (stereo not shown) [Compound 45], the IC50 was ≤ 10 nM.

Turning to `CN1CCN2c3ccc(-c4n[nH]c5cc(C#N)c(-c6c(F)cc(C7CCCN7)cc6F)cc45)cc3OCC2C1` (stereo not shown) [Compound 22], the IC50 was ≤ 10 nM.

In the case of `CN(C)CCCOc1ccc(-c2c[nH]c3ncc(-c4ccc5c(c4)OCC4CN(C)CCN54)cc23)cc1` (stereo not shown) [Compound 110], the IC50 was ≤ 10 nM.

As to `COc1cccc(F)c1-c1nc2c(-c3ccc4c(c3)OCC3CN(C)CCN43)c[nH]c2cc1C#N` (stereo not shown) [Compound 97], the IC50 was 10 to 100 nM.

Take `CNCc1cc(C)c(-c2nc3c(-c4ccc5c(c4)OCC4CN(C)CCN54)n[nH]c3cc2C#N)c(F)c1` (stereo not shown) [Compound 83]: the IC50 was ≤ 10 nM.

Consider `CN1CCN2c3ccc(-c4n[nH]c5cc(C#N)c(-c6cccn7ccnc67)cc45)cc3OCC2C1` (stereo not shown) [Compound 55], for which the IC50 was ≤ 10 nM.

For `CN1CCN2c3ccc(-c4n[nH]c5cc(C#N)c(-c6c(F)cccc6F)cc45)cc3OCC2C1` (stereo not shown) [Compound 4], the IC50 was in the range of 10 to 100 nM.

`CNCc1cc(C)c(-c2cc3c(-c4ccc5c(c4)OCC4CN(C)CCN54)c[nH]c3cn2)c(F)c1` (stereo not shown) [Compound 89]: the IC50 was ≤ 10 nM.

For the molecule `CN1CC(C(O)c2ccc(-c3c[nH]c4ncc(-c5ccc6c(c5)OCC5CN(C)CCN65)cc34)cc2)C1` (stereo not shown) [Compound 111], the IC50 was ≤ 10 nM.

`CN1CCN2c3ccc(-c4n[nH]c5cc(C#N)c(-c6cncnc6)cc45)cc3OCC2C1` (stereo not shown) [Compound 48]: the IC50 was ≤ 10 nM.

Consider `COc1ccccc1-c1cc2c(-c3ccc4c(c3)OCC3CN(C)CCN43)n[nH]c2cc1C#N` (stereo not shown) [Compound 2], for which the IC50 was ≤ 10 nM.

`COc1cccc(F)c1-c1cc2c(-c3ccc4c(c3)OCC3CN(C)CCN43)c[nH]c2cc1C#N` (stereo not shown) [Compound 91]: the IC50 was ≤ 10 nM.

Consider `COc1cccc(F)c1-c1ncc2[nH]nc(-c3ccc4c(c3)OCC3CN(C)CCN43)c2n1` (stereo not shown) [Compound 79], for which the IC50 lay in the range of 10 to 100 nM.

`CN1CCN2c3ccc(-c4n[nH]c5cc(C#N)c(-c6cccc(C#N)c6F)cc45)cc3OCC2C1` (stereo not shown) [Compound 8]: the IC50 is ≤ 10 nM.

As for `CN1CCN2c3ccc(-c4n[nH]c5cc(C#N)c(-c6c(F)cc(NC(=O)CN7CC8(COC8)C7)cc6F)cc45)cc3OCC2C1` (stereo not shown) [Compound 29], the IC50 was ≤ 10 nM.

In the case of `CN1CCN2c3ccc(-c4n[nH]c5cnc(-c6cccn7ccnc67)cc45)cc3OCC2C1` (stereo not shown) [Compound 77], the IC50 was ≤ 10 nM.

Turning to `CNCc1cc(C)c(-c2cc3c(-c4ccc5c(c4)OCC4CN(C)CCN54)n[nH]c3cn2)c(F)c1` (stereo not shown) [Compound 69], the IC50 is ≤ 10 nM.

As to `CNS(=O)(=O)c1cccc(-c2cc3c(-c4ccc5c(c4)OCC4CN(C)CCN54)n[nH]c3cc2C#N)c1F` (stereo not shown) [Compound 14], the IC50 was ≤ 10 nM.

For the molecule `CN1CCN2c3ccc(-c4n[nH]c5cc(C#N)c(-c6cnc7ccnn7c6)cc45)cc3OCC2C1` (stereo not shown) [Compound 58], the IC50 is ≤ 10 nM.

As for `CN1CCN2c3ccc(-c4n[nH]c5cc(C#N)c(-c6cnccn6)cc45)cc3OCC2C1` (stereo not shown) [Compound 49], the IC50 was ≤ 10 nM.

Consider `CN1CCN2c3ccc(-c4n[nH]c5cc(C#N)c(-c6ccc7nccn7c6)cc45)cc3OCC2C1` (stereo not shown) [Compound 59], for which the IC50 was ≤ 10 nM.

With `CNCc1cc(C)c(-c2ncc3[nH]cc(-c4ccc5c(c4)OCC4CN(C)CCN54)c3n2)c(F)c1` (stereo not shown) [Compound 95], the IC50 is ≤ 10 nM.

As to `CNCc1cc(C)c(-c2cc3c(-c4ccc5c(c4)OCC4CN(CC(F)(F)F)CCN54)n[nH]c3cc2C#N)c(F)c1` (stereo not shown) [Compound 128], the IC50 was ≤ 10 nM.

In the case of `CNCc1cc(F)c(-c2cc3c(-c4ccc5c(c4)OCC4CN(C)CCN54)n[nH]c3cc2C#N)c(OC)c1` (stereo not shown) [Compound 20], the IC50 is ≤ 10 nM.

With `Cc1cccc(F)c1-c1cc2c(-c3ccc4c(c3)OCC3CN(C)CCN43)n[nH]c2cc1C#N` (stereo not shown) [Compound 5], the IC50 is 10 to 100 nM.

Consider `COc1ccncc1-c1cc2c(-c3ccc4c(c3)OCC3CN(C)CCN43)n[nH]c2cc1C#N` (stereo not shown) [Compound 44], for which the IC50 is ≤ 10 nM.

`CNCc1cc(F)c(-c2ncc3[nH]nc(-c4ccc5c(c4)OCC4CN(C)CCN54)c3n2)c(F)c1` (stereo not shown) [Compound 81]: the IC50 was in the range of 10 to 100 nM.

For `Cc1ccncc1-c1cc2c(-c3ccc4c(c3)OCC3CN(C)CCN43)n[nH]c2cn1` (stereo not shown) [Compound 70], the IC50 was ≤ 10 nM.

For the molecule `CN1CCN2c3ccc(-c4n[nH]c5cc(C#N)c(-c6cccc7[nH]ncc67)cc45)cc3OCC2C1` (stereo not shown) [Compound 50], the IC50 was ≤ 10 nM.

Consider `CNCc1cc(F)c(-c2ccc3[nH]nc(-c4ccc5c(c4)OCC4CN(C)CCN54)c3n2)c(F)c1` (stereo not shown) [Compound 87], for which the IC50 fell in the range of 10 to 100 nM.

Turning to `COc1cccc(F)c1-c1cc2c(-c3ccc4c(c3)OCC3CN(C)CCN43)n[nH]c2cn1` (stereo not shown) [Compound 64], the IC50 is ≤ 10 nM.

Turning to `COc1ccc(C#N)c(F)c1-c1cc2c(-c3ccc4c(c3)OCC3CN(C)CCN43)n[nH]c2cn1` (stereo not shown) [Compound 74], the IC50 fell in the range of 10 to 100 nM.

As for `CCN1CCN2c3ccc(-c4n[nH]c5cc(C#N)c(-c6c(C)cc(CNC)cc6F)cc45)cc3OCC2C1` (stereo not shown) [Compound 124], the IC50 was ≤ 10 nM.

Turning to `CN1CCN2c3ccc(-c4n[nH]c5cc(C#N)c(-c6cccc(C(N)=O)c6F)cc45)cc3OCC2C1` (stereo not shown) [Compound 9], the IC50 is ≤ 10 nM.

`CN1CCN2c3ccc(-c4cnc5[nH]cc(-c6ccc(OC7CCNCC7)cc6)c5c4)cc3OCC2C1` (stereo not shown) [Compound 109]: the IC50 was ≤ 10 nM.

Take `CN1CCN2c3ccc(-c4n[nH]c5cc(C#N)c(-c6c(F)ccc7c6CCNC7)cc45)cc3OCC2C1` (stereo not shown) [Compound 37]: the IC50 is ≤ 10 nM.

`CN1CCC(Oc2cc(F)c(-c3cc4c(-c5ccc6c(c5)OCC5CN(C)CCN65)n[nH]c4cc3C#N)c(F)c2)CC1` (stereo not shown) [Compound 33]: the IC50 is ≤ 10 nM.

Regarding `COc1cccc(F)c1-c1ccc2[nH]cc(-c3ccc4c(c3)OCC3CN(C)CCN43)c2n1` (stereo not shown) [Compound 100], the IC50 is ≤ 10 nM.

On to `CN1CCN2c3ccc(-c4n[nH]c5cnc(-c6ccc(C(=O)N7CC(N(C)C)C7)cc6)cc45)cc3OCC2C1` (stereo not shown) [Compound 76], for which the IC50 fell in the range of 10 to 100 nM.

Consider `CN(C)CC(=O)Nc1cc(F)c(-c2cc3c(-c4ccc5c(c4)OCC4CN(C)CCN54)n[nH]c3cc2C#N)c(F)c1` (stereo not shown) [Compound 27], for which the IC50 is ≤ 10 nM.
